Results from paper PMC4411097, “Pachymic Acid Inhibits Growth and Induces Apoptosis of Pancreatic Cancer In Vitro and In Vivo by Targeting ER Stress” (PLoS ONE, 2015).

Columns and labels:
[1] = test system: advanced pancreatic cancer; details: cited from earlier work
PANC-1 cells = assay: Apoptosis, Cell Death Detection ELISA (cytoplasmic histone-associated DNA fragments); type: cell-based, human; details: PANC-1, TUDCA 200 μM with PA 30 μM, 24 h
Procedure: (§1) Apoptosis induction in PA-treated cells was assessed by quantitation of cytoplasmic histone-associated DNA fragments and western blotting for PARP cleavage (c-PARP). The Cell Death Detection ELISA^PLUS Kit (Roche, Indianapolis, IN) was used to detect the amount of cytoplasmic histone-associated DNA fragments according to the manufacturer’s instructions and expressed relative to vehicle-treated cells (set equal to 1).

MIA PaCa-2 cells = assay: as above; type: cell-based, human; details: MIA PaCa-2, TUDCA 200 μM with PA 30 μM, 24 h
Procedure: as §1

[2] = test system: PARP cleavage (c-PARP) in MIA PaCa-2 cells; assay: Western blot for PARP cleavage (c-PARP); type: cell-based, human; details: MIA PaCa-2, TUDCA 200 μM with PA 30 μM, 24 h
Procedure: as §1
(§2) PANC-1, MIA PaCa-2 cells were treated with PA (0–30 μM) for 10 min, 30 min or 24 h, respectively. Whole protein extracts isolated from cells and tumor tissues were prepared and western blot analysis with anti-cleaved PARP, anti-XBP-1s, anti-ATF6, anti-ATF4, anti-Hsp70, anti-CHOP, anti-phospho-eIF2α or anti-eIF2α antibodies were performed as previously described. Western blots were quantified with HP-Scanjet 550c and analyzed by UN-SCAN-IT software (Silk Scientific, Orem, UT). Three independent experiments were done for all the immunoblot studies and quantitative data composed of all the experiments with statistical analysis were added below the representative blot image.

[3] = test system: PARP cleavage (c-PARP) in PANC-1 cells; assay: Western blot for PARP cleavage (c-PARP); type: cell-based, human; details: PANC-1, TUDCA 200 μM with PA 30 μM, 24 h
Procedure: as §1, §2

[4] = test system: ER stress response proteins in MIA PaCa-2 cells; assay: Western blot of ER stress response proteins; type: cell-based, human; details: MIA PaCa-2, TUDCA 200 μM with PA 30 μM, 24 h
Procedure: as §2

[5] = test system: ER stress response proteins in PANC-1 cells; assay: Western blot of ER stress response proteins; type: cell-based, human; details: PANC-1, TUDCA 200 μM with PA 30 μM, 24 h
Procedure: as §2

Row | Compound | Response rate ([1]; advanced pancreatic cancer) | Median survival time ([1]; pancreatic cancer) | Tumor response rate ([1]; pancreatic cancer) | Effect of TUDCA on PA-associated nuclear DNA fragmentation (PANC-1 cells) | Effect of TUDCA on PA-associated nuclear DNA fragmentation (MIA PaCa-2 cells) | Effect of TUDCA on PA-associated c-PARP expression [2] | Effect of TUDCA on PA-associated c-PARP expression [3] | Effect of TUDCA on PA-induced ATF4 and CHOP [4] | Effect of TUDCA on PA-induced ATF4 and CHOP [5]
1 | Nc1ccn([C@@H]2O[C@H](CO)[C@@H](O)C2(F)F)c(=O)n1 [Gemcitabine] | less than 20% | 5 months | 12% |  |  |  |  |  | 
2 | C[C@H](CCC(=O)NCCS(=O)(=O)O)[C@H]1CC[C@H]2[C@@H]3[C@@H](O)C[C@@H]4C[C@H](O)CC[C@]4(C)[C@H]3CC[C@]12C [TUDCA, tauroursodeoxycholic acid, reference compound] |  |  |  | rescued | rescued | blocked the enormous increase in the expression of c-PARP | blocked the enormous increase in the expression of c-PARP | blocked the induction of ATF4 and CHOP | blocked the induction of ATF4 and CHOP
